Like-named read-outs stand apart in the source and are kept apart here. Blank lines part the entries; values can stand above or below the molecule they belong to.
What was measured:
hLiMTs [1] = system: hLiMTs
HepaRG spheroids [2] = system: HepaRG spheroids
[3] = cited from earlier work
HepaRG spheroids [4] = experiment: Combined HCI (HCS) and cellular ATP 3D assay in HepaRG spheroids; conditions: HepaRG; for HepaRG <25x Avg Cmax ATP / HepaRG <100x Avg Cmaxu ATP: ATP endpoint; for HepaRG <25x Avg Cmax ATP / HepaRG <25x Avg Cmax HCS / HepaRG <25x Avg Cmax All: cut-off <25x Avg Cmax; for HepaRG <100x Avg Cmaxu ATP / HepaRG <100x Avg Cmaxu HCS / HepaRG <100x Avg Cmaxu All: cut-off <100x Avg Cmaxu; for HepaRG <25x Avg Cmax HCS / HepaRG <100x Avg Cmaxu HCS: HCS endpoints; for HepaRG <25x Avg Cmax All: all endpoints (ATP and HCS); for HepaRG Cmax max All / HepaRG Cmax min All / HepaRG <10 uM All / HepaRG <100x Avg Cmaxu All: all endpoints; for HepaRG Cmax max All: Cmax max used; for HepaRG Cmax min All: Cmax min used; for HepaRG <10 uM All: cut-off <10 uM; for minimal effective concentration: Homo sapiens
[5] = read-out: Human plasma Cmax; total plasma Cmax.tot, median of 9 literature references; cited from earlier work
[6] = Plasma free fraction (fu) and unbound Cmax (Cmax,u); format: in vitro ADME, human; conditions: unbound plasma Cmax
[7] = system: HepG2 C3A spheroid, BSEP, Glu/Gal in HepG2 cells, bioactivation; conditions: cited from earlier work
PHH = conditions: cited from earlier work
[8] = plasma free fraction; cited from earlier work
hLiMTs [9] = experiment: Combined HCI (HCS) and cellular ATP 3D assay in hLiMTs; conditions: for hLiMTs <25x Avg Cmax ATP / hLiMTs <100x Avg Cmaxu ATP: ATP endpoint; for hLiMTs <25x Avg Cmax ATP / hLiMTs <25x Avg Cmax HCS / hLiMTs <25x Avg Cmax All: cut-off <25x Avg Cmax; for hLiMTs <100x Avg Cmaxu ATP / hLiMTs <100x Avg Cmaxu HCS / hLiMTs <100x Avg Cmaxu All: cut-off <100x Avg Cmaxu; for hLiMTs <25x Avg Cmax HCS / hLiMTs <100x Avg Cmaxu HCS: HCS endpoints; for hLiMTs <25x Avg Cmax All: all endpoints (ATP and HCS); for hLiMTs Cmax max All / hLiMTs Cmax min All / hLiMTs <10 uM All / hLiMTs <100x Avg Cmaxu All: all endpoints; for hLiMTs Cmax max All: Cmax max used; for hLiMTs Cmax min All: Cmax min used; for hLiMTs <10 uM All: cut-off <10 uM
hLiMTs [10] = conditions: cited from earlier work
[11] = cited from earlier work; remark: listed apart in the source
PHH spheroids = conditions: cited from earlier work
[12] = system: THLE or HepG2 cells, isolated mitochondria, BSEP; conditions: cited from earlier work
human hepatocytes = conditions: cited from earlier work
[13] = In vitro Assay, ref Proctor 2017

Compound: CN(C)C(=O)Oc1cccc([N+](C)(C)C)c1 [neostigmine]
DILI prediction hLiMTs (HCS-MEC) (hLiMTs [1]): -VE
DILI prediction HepaRG spheroids (HCS-MEC) (HepaRG spheroids [2]): -VE
Assigned DILI category ([3]; Chen et al. 2016 or literature alignment, ref Chen et al. 2016): 1
In vivo DILI ([3]; […]): -VE
In vivo DILI ([3]; ref Proctor 2017): -VE
In vivo DILI ([3]; ref Williams 2019): -VE
HepaRG <25x Avg Cmax ATP (HepaRG spheroids [4]): -ve
HepaRG <100x Avg Cmaxu ATP (HepaRG spheroids [4]): -ve
HepaRG <25x Avg Cmax HCS (HepaRG spheroids [4]): -ve
HepaRG <100x Avg Cmaxu HCS (HepaRG spheroids [4]): -ve
HepaRG <25x Avg Cmax All (HepaRG spheroids [4]): -ve
HepaRG Cmax max All (HepaRG spheroids [4]): -ve
HepaRG Cmax min All (HepaRG spheroids [4]): -ve
HepaRG <10 uM All (HepaRG spheroids [4]): -ve
HepaRG <100x Avg Cmaxu All (HepaRG spheroids [4]): -ve
Cmax [5]: 45 nM
Human plasma Cmax,u [6]: 36 nM
Bayesian Machine Learning DILI prediction, Williams (2019) ([7]; Bayesian modeling, ref Williams et al. 2019): -VE
Bayesian Machine Learning ([7]; ref Williams 2019): -VE
PHH/100uM, Proctor (2017) (PHH; 2D PHH, ATP, IC50 threshold 100 µM, ref Proctor et al. 2017): -VE
PHH ATP <100uM (PHH; [13]): -VE
PHH/100xCmax, Proctor (2017) (PHH): -VE
fu [8]: 0.800
hLiMTs <25x Avg Cmax ATP (hLiMTs [9]): -ve
hLiMTs <100x Avg Cmaxu ATP (hLiMTs [9]): -ve
hLiMTs <25x Avg Cmax HCS (hLiMTs [9]): -ve
hLiMTs <100x Avg Cmaxu HCS (hLiMTs [9]): -ve
hLiMTs <25x Avg Cmax All (hLiMTs [9]): -ve
hLiMTs Cmax max All (hLiMTs [9]): -ve
hLiMTs Cmax min All (hLiMTs [9]): -ve
hLiMTs <10 uM All (hLiMTs [9]): -ve
hLiMTs <100x Avg Cmaxu All (hLiMTs [9]): -ve
hLiMTs ATP <100uM (hLiMTs [10]; [13]): -VE
hLiMTs/100xCmax, Proctor (2017) (hLiMTs [10]): -VE
hLiMTs/100uM, Proctor (2017) (hLiMTs [10]; hLiMTs, ATP, IC50 threshold 100 µM, ref Proctor et al. 2017): -VE

Compound: CC(COc1ccccc1)N(CCCl)Cc1ccccc1 (stereo not drawn) [phenoxybenzamine]
DILI prediction hLiMTs (HCS-MEC) (hLiMTs [1]): -VE
DILI prediction HepaRG spheroids (HCS-MEC) (HepaRG spheroids [2]): -VE
Assigned DILI category ([3]; in vivo): 1
In vivo DILI ([3]; in vivo): -VE
HepaRG <25x Avg Cmax ATP (HepaRG spheroids [4]): -ve
HepaRG <100x Avg Cmaxu ATP (HepaRG spheroids [4]): -ve
HepaRG <25x Avg Cmax HCS (HepaRG spheroids [4]): -ve
HepaRG <100x Avg Cmaxu HCS (HepaRG spheroids [4]): -ve
HepaRG <25x Avg Cmax All (HepaRG spheroids [4]): -ve
HepaRG Cmax max All (HepaRG spheroids [4]): -ve
HepaRG Cmax min All (HepaRG spheroids [4]): -ve
HepaRG <10 uM All (HepaRG spheroids [4]): -ve
HepaRG <100x Avg Cmaxu All (HepaRG spheroids [4]): -ve
minimal effective concentration (HepaRG spheroids [4]; read-out: ATP endpoint MEC): 25.3 µM
minimal effective concentration (HepaRG spheroids [4]; read-out: HCS endpoint MEC): 53.8 µM
Cmax [5]: 197 nM
DILI +VE (5-8), DILI -VE (-4) ([11]; in vivo): -VE
DILI severity category (Chen et al. [2016]) ([11]; in vivo): No
Human plasma Cmax,u [6]: 2 nM
DILI in vitro assay prediction, Vorrink (2018) (PHH spheroids): -VE
hLiMTs ATP <20 x Cmax (PHH spheroids): -VE
Bayesian Machine Learning [7]: -VE
Bayesian Machine Learning DILI prediction, Williams (2019) [7]: -VE
Partition Hybrid HRM Score [12]: +VE
Partition Hybrid HRM Score ≥4, Aleo (2019) [12]: +VE (key: +VE: Partition Hybrid HRM Score ≥4)
Partition Hybrid HRM Score ≥8, Aleo (2019) [12]: -VE
Ro2 Hybrid HRM Score [12]: +VE
Rule of Two hybrid HRM Score ≥3, Aleo (2019) [12]: +VE (key: +VE: Rule of Two hybrid HRM Score ≥3)
Rule of Two hybrid HRM Score ≥8, Aleo (2019) [12]: -VE
PHH ATP <100uM (PHH): -VE
PHH/100uM, Proctor (2017) (PHH): -VE
PHH/100xCmax, Proctor (2017) (PHH): -VE
fu [8]: 0.009
AC50 (hLiMTs [9]; Homo sapiens, read-out: ATP endpoint AC50): 26.9 µM
minimal effective concentration (hLiMTs [9]; Homo sapiens, read-out: ATP endpoint MEC): 10.7 µM
minimal effective concentration (hLiMTs [9]; Homo sapiens, read-out: HCS endpoint MEC): 15.6 µM
hLiMTs <25x Avg Cmax ATP (hLiMTs [9]): -ve
hLiMTs <100x Avg Cmaxu ATP (hLiMTs [9]): -ve
hLiMTs <25x Avg Cmax HCS (hLiMTs [9]): -ve
hLiMTs <100x Avg Cmaxu HCS (hLiMTs [9]): -ve
hLiMTs <25x Avg Cmax All (hLiMTs [9]): -ve
hLiMTs Cmax max All (hLiMTs [9]): -ve
hLiMTs Cmax min All (hLiMTs [9]): -ve
hLiMTs <10 uM All (hLiMTs [9]): -ve
hLiMTs <100x Avg Cmaxu All (hLiMTs [9]): -ve
hLiMTs ATP <100uM (hLiMTs [10]): -VE
hLiMTs/100uM, Proctor (2017) (hLiMTs [10]): -VE
hLiMTs/100xCmax, Proctor (2017) (hLiMTs [10]): -VE
DILI in vitro assay prediction, Xu (2008) (human hepatocytes): -VE
Structural based (HCI) (human hepatocytes): -VE

hLiMTs <10 uM All (hLiMTs [1]): -ve
hLiMTs Cmax max All (hLiMTs [1]; human): -ve
hLiMTs Cmax min All (hLiMTs [1]; human): -ve
HepaRG <10 uM All (HepaRG spheroids [2]): -ve
HepaRG Cmax max All (HepaRG spheroids [2]; human): -ve
HepaRG Cmax min All (HepaRG spheroids [2]; human): -ve
Compound: CC(C)[N+](C)(CCOC(=O)C1c2ccccc2Oc2ccccc21)C(C)C [propantheline]
In vivo DILI ([3]; ref Proctor 2017): -VE
In vivo DILI ([3]; ref Williams 2019): -VE
DILI severity category ([11]; in vivo): No
DILI +VE (5-8), DILI -VE (-4) ([11]; ref Chen 2016): -VE
DILI severity category ([11]; ref Chen 2016): vNo-DILI-Concern
Bayesian Machine Learning ([7]; ref Williams 2019): -VE
PHH ATP <100uM (PHH; [13]): -VE
hLiMTs ATP <100uM (hLiMTs [10]; [13]): -VE
